Laboratory results from EPA's ToxValDB 9.5 (doi:10.2903/j.efsa.2010.1711).
Values joined by “and” are separate entries in the source; they are usually repeats but may differ in a detail not shown here. Identical values can stand only once.

What was measured:
Daphnia magna = conditions: chronic/long-term; duration: 21 days; reproduction
Tagia sp. = conditions: acute; duration: 14 days; mortality
Bibionidae = conditions: chronic/long-term; duration: 28 days; development
Apis mellifera = conditions: acute; duration: 96 hours; oral; unspecified; mortality
Typhlodromus pyri = experiment: LR50; higher = less toxic; conditions: acute; duration: 7 days; mortality
Aphidius rhopalosiphi = experiment: LR50; higher = less toxic; conditions: acute; duration: 48 hours; mortality

In the case of CC(C)([CH2][Sn]([CH2]C(C)(C)c1ccccc1)([CH2]C(C)(C)c1ccccc1)[O][Sn]([CH2]C(C)(C)c1ccccc1)([CH2]C(C)(C)c1ccccc1)[CH2]C(C)(C)c1ccccc1)c1ccccc1 [Fenbutatin oxide], the LC50 (Oncorhynchus mykiss; acute, duration: 96 hours, mortality) is reported as 1.14 ng/mL, the NOEC (Oncorhynchus mykiss; chronic/long-term, duration: 62 days, growth) is reported as 0.0002 mg/L and the NOAEC (Rattus norvegicus; acute, inhalation, mortality) is reported as 5.13 mg/kg-day. For the same compound, the LD50 (Rattus norvegicus; acute, oral, F, mortality) was > 3000 mg/kg-day, the NOAEL (Rattus norvegicus; chronic, duration: 2 years, clinical signs) was 5 mg/kg-day and the NOAEL (Rattus norvegicus; reproduction developmental, body weight) was 4.5 mg/kg-day and 10 mg/kg-day. For the same compound, the LC50 (Colinus virginianus; acute, oral, diet, mortality) was > 1610 mg/kg-day, the LD50 (Colinus virginianus; acute, oral, mortality) was > 2510 mg/kg-day and the NOEC (Colinus virginianus; reproduction developmental) was 14.4 mg/kg-day. For the same compound, the NOEC (Anas platyrhynchos; reproductive) was 16.8 mg/kg-day, the LC50 (Anas platyrhynchos; short-term, oral, feed, mortality) was > 968 mg/kg-day and the NOEC (Daphnia magna) was 0.004 mg/L. The LC50 (Tagia sp.) was > 1000 mg/kg, the NOEC (Bibionidae) was > 1000 mg/kg and the LD50 (Apis mellifera) was > 200 µg/piece. For the same compound, the LR50 (Typhlodromus pyri) was 468 g/ha and the LR50 (Aphidius rhopalosiphi) was > 85.9 g/ha.
